Assay results taken from PMC5074247 (Biopharmaceutics & Drug Disposition, 2016).
Read-outs that look alike come from different tables or passages of the source.

Tests used:
[1] = Whole‐body autoradiography of SD rats; assay type: in vivo, Sprague–Dawley rats; details: 168 h, oral 1 mg/kg, SD rat
[2] = assay type: in vivo, Sprague–Dawley rats; details: all time‐points measured; oral 1 mg/kg [^14C]teneligliptin; SD rats
[3] = Volume of distribution at steady state after intravenous administration to rats; assay type: in vivo; details: rat, plasma
[4] = Tissue distribution of radioactivity in SD rats; assay type: in vivo, Sprague–Dawley rats; details: oral 1 mg/kg
[5] = cited from earlier work
[6] = SHRcp model ref 40; cited from earlier work

## Cc1cc(N2CCN([C@@H]3CN[C@H](C(=O)N4CCSC4)C3)CC2)n(-c2ccccc2)n1 [Teneligliptin, 3‐[(2S,4S)‐4‐[4‐(3‐methyl‐1‐phenyl‐1H‐pyrazol‐5‐yl)piperazin‐1‐yl]pyrrolidin‐2‐ylcarbonyl] thiazolidine]
[1]; kidney
  radioactivity in autoradiogram: relatively high level of radioactivity
[1]; liver
  radioactivity in autoradiogram: low level of radioactivity
[1]; other tissues examined
  radioactivity in autoradiogram: negligible radioactivity
[2]
  radioactive component in plasma and kidney (HPLC radiochromatogram): most abundant radioactive component
[3]
  Vd: 8.9 L/kg
[4]; Adrenal, 0.5 h
  Concentration of radioactivity: 1221.7 ± 289.0 ng eq/ml or g
[4]; Adrenal, 5 h
  Concentration of radioactivity: 323.7 ± 90.7 ng eq/ml or g
[4]; Adrenal, 12 h
  Concentration of radioactivity: 177.0 ± 22.7 ng eq/ml or g
[4]; Adrenal, 24 h
  Concentration of radioactivity: 100.4 ± 8.8 ng eq/ml or g
[4]; Adrenal, 72 h
  Concentration of radioactivity: 20.5 ± 4.3 (N.C.) ng eq/ml or g
[4]; Adrenal, 168 h
  Concentration of radioactivity: 6.5 ± 4.5 (N.C.) ng eq/ml or g
[4]; Aorta, 0.5 h
  Concentration of radioactivity: 488.7 ± 78.4 ng eq/ml or g
[4]; Aorta, 5 h
  Concentration of radioactivity: 99.0 ± 46.0 ng eq/ml or g
[4]; Aorta, 12 h
  Concentration of radioactivity: 35.7 ± 16.7 ng eq/ml or g
[4]; Aorta, 24 h
  Concentration of radioactivity: 15.4 ± 5.2 ng eq/ml or g
[4]; Bone, 0.5 h
  Concentration of radioactivity: 118.7 ± 22.2 ng eq/ml or g
[4]; Bone, 5 h
  Concentration of radioactivity: 52.3 ± 19.9 ng eq/ml or g
[4]; Bone, 12 h
  Concentration of radioactivity: 23.8 ± 7.5 ng eq/ml or g
[4]; Epididymis, 0.5 h
  Concentration of radioactivity: 232.5 ± 61.7 ng eq/ml or g
[4]; Epididymis, 5 h
  Concentration of radioactivity: 352.5 ± 76.0 ng eq/ml or g
[4]; Epididymis, 12 h
  Concentration of radioactivity: 259.9 ± 44.4 ng eq/ml or g
[4]; Epididymis, 24 h
  Concentration of radioactivity: 167.6 ± 35.4 ng eq/ml or g
[4]; Epididymis, 72 h
  Concentration of radioactivity: 44.9 ± 3.8 (N.C.) ng eq/ml or g
[4]; Epididymis, 168 h
  Concentration of radioactivity: 11.2 ± 3.3 (N.C.) ng eq/ml or g
[4]; Heart, 0.5 h
  Concentration of radioactivity: 454.0 ± 85.0 ng eq/ml or g
[4]; Heart, 5 h
  Concentration of radioactivity: 118.7 ± 34.6 ng eq/ml or g
[4]; Heart, 12 h
  Concentration of radioactivity: 56.6 ± 8.9 ng eq/ml or g
[4]; Heart, 24 h
  Concentration of radioactivity: 30.6 ± 2.7 ng eq/ml or g
[4]; Heart, 72 h
  Concentration of radioactivity: 6.3 ± 1.1 (N.C.) ng eq/ml or g
[4]; Kidney, 0.5 h
  Concentration of radioactivity: 4568.2 ± 609.1 ng eq/ml or g
[4]; Kidney, 5 h
  Concentration of radioactivity: 3292.8 ± 76.8 ng eq/ml or g
[4]; Kidney, 12 h
  Concentration of radioactivity: 2872.1 ± 419.4 ng eq/ml or g
[4]; Kidney, 24 h
  Concentration of radioactivity: 2637.8 ± 410.3 ng eq/ml or g
[4]; Kidney, 72 h
  Concentration of radioactivity: 1548.5 ± 192.3 (N.C.) ng eq/ml or g
[4]; Kidney, 168 h
  Concentration of radioactivity: 606.1 ± 203.2 (N.C.) ng eq/ml or g
[4]; Liver, 0.5 h
  Concentration of radioactivity: 4686.7 ± 932.3 ng eq/ml or g
[4]; Liver, 5 h
  Concentration of radioactivity: 1753.2 ± 130.4 ng eq/ml or g
[4]; Liver, 12 h
  Concentration of radioactivity: 814.1 ± 68.7 ng eq/ml or g
[4]; Liver, 24 h
  Concentration of radioactivity: 389.5 ± 49.5 ng eq/ml or g
[4]; Liver, 72 h
  Concentration of radioactivity: 250.2 ± 21.8 (N.C.) ng eq/ml or g
[4]; Liver, 168 h
  Concentration of radioactivity: 92.4 ± 17.2 (N.C.) ng eq/ml or g
[4]; Lung, 0.5 h
  Concentration of radioactivity: 1938.4 ± 456.7 ng eq/ml or g
[4]; Lung, 5 h
  Concentration of radioactivity: 714.7 ± 116.7 ng eq/ml or g
[4]; Lung, 12 h
  Concentration of radioactivity: 500.7 ± 40.2 ng eq/ml or g
[4]; Lung, 24 h
  Concentration of radioactivity: 323.6 ± 46.7 ng eq/ml or g
[4]; Lung, 72 h
  Concentration of radioactivity: 71.3 ± 12.9 (N.C.) ng eq/ml or g
[4]; Lung, 168 h
  Concentration of radioactivity: 16.9 ± 5.9 (N.C.) ng eq/ml or g
[4]; Pancreas, 0.5 h
  Concentration of radioactivity: 1253.9 ± 341.0 ng eq/ml or g
[4]; Pancreas, 5 h
  Concentration of radioactivity: 298.9 ± 83.1 ng eq/ml or g
[4]; Pancreas, 12 h
  Concentration of radioactivity: 107.8 ± 22.6 ng eq/ml or g
[4]; Pancreas, 24 h
  Concentration of radioactivity: 50.8 ± 1.2 ng eq/ml or g
[4]; Pancreas, 72 h
  Concentration of radioactivity: 8.3 ± 1.8 (N.C.) ng eq/ml or g
[4]; Pancreas, 168 h
  Concentration of radioactivity: 3.4 ± 0.9 (N.C.) ng eq/ml or g
[4]; Prostate, 0.5 h
  Concentration of radioactivity: 478.6 ± 167.1 ng eq/ml or g
[4]; Prostate, 5 h
  Concentration of radioactivity: 169.0 ± 53.9 ng eq/ml or g
[4]; Prostate, 12 h
  Concentration of radioactivity: 76.7 ± 18.8 ng eq/ml or g
[4]; Prostate, 24 h
  Concentration of radioactivity: 38.6 ± 3.3 ng eq/ml or g
[4]; Prostate, 72 h
  Concentration of radioactivity: 6.1 ± 1.3 (N.C.) ng eq/ml or g
[4]; Prostate, 168 h
  Concentration of radioactivity: 2.2 ± 0.6 (N.C.) ng eq/ml or g
[4]; Seminal vesicle, 0.5 h
  Concentration of radioactivity: 329.0 ± 105.4 ng eq/ml or g
[4]; Seminal vesicle, 5 h
  Concentration of radioactivity: 133.8 ± 57.4 ng eq/ml or g
[4]; Seminal vesicle, 12 h
  Concentration of radioactivity: 51.0 ± 6.3 ng eq/ml or g
[4]; Seminal vesicle, 24 h
  Concentration of radioactivity: 18.7 ± 4.4 ng eq/ml or g
[4]; Seminal vesicle, 72 h
  Concentration of radioactivity: 1.7 ± 2.0 (N.C.) ng eq/ml or g
[4]; Skeletal muscle, 0.5 h
  Concentration of radioactivity: 242.5 ± 66.9 ng eq/ml or g
[4]; Skeletal muscle, 5 h
  Concentration of radioactivity: 46.7 ± 20.1 ng eq/ml or g
[4]; Skeletal muscle, 12 h
  Concentration of radioactivity: 16.7 ± 2.4 ng eq/ml or g
[4]; Skeletal muscle, 24 h
  Concentration of radioactivity: 7.9 ± 1.1 ng eq/ml or g
[4]; Skin, 0.5 h
  Concentration of radioactivity: 366.3 ± 77.9 ng eq/ml or g
[4]; Skin, 5 h
  Concentration of radioactivity: 199.1 ± 47.5 ng eq/ml or g
[4]; Skin, 12 h
  Concentration of radioactivity: 99.2 ± 14.6 ng eq/ml or g
[4]; Skin, 24 h
  Concentration of radioactivity: 55.2 ± 2.9 ng eq/ml or g
[4]; Skin, 72 h
  Concentration of radioactivity: 18.9 ± 1.6 (N.C.) ng eq/ml or g
[4]; Skin, 168 h
  Concentration of radioactivity: 9.3 ± 3.3 (N.C.) ng eq/ml or g
[4]; Spinal cord, 0.5 h
  Concentration of radioactivity: 28.2 ± 7.8 ng eq/ml or g
[4]; Spinal cord, 5 h
  Concentration of radioactivity: 11.4 ± 5.8 ng eq/ml or g
[4]; Spinal cord, 12 h
  Concentration of radioactivity: 4.9 ± 2.4 ng eq/ml or g
[4]; Spinal cord, 24 h
  Concentration of radioactivity: 1.6 ± 1.1 ng eq/ml or g
[4]; Spleen, 0.5 h
  Concentration of radioactivity: 1377.2 ± 292.1 ng eq/ml or g
[4]; Spleen, 5 h
  Concentration of radioactivity: 510.7 ± 68.2 ng eq/ml or g
[4]; Spleen, 12 h
  Concentration of radioactivity: 312.9 ± 31.8 ng eq/ml or g
[4]; Spleen, 24 h
  Concentration of radioactivity: 217.7 ± 21.3 ng eq/ml or g
[4]; Spleen, 72 h
  Concentration of radioactivity: 62.4 ± 7.3 (N.C.) ng eq/ml or g
[4]; Spleen, 168 h
  Concentration of radioactivity: 17.0 ± 4.3 (N.C.) ng eq/ml or g
[4]; Submaxillary gland, 0.5 h
  Concentration of radioactivity: 1009.9 ± 265.5 ng eq/ml or g
[4]; Submaxillary gland, 5 h
  Concentration of radioactivity: 309.9 ± 62.2 ng eq/ml or g
[4]; Submaxillary gland, 12 h
  Concentration of radioactivity: 123.7 ± 24.6 ng eq/ml or g
[4]; Submaxillary gland, 24 h
  Concentration of radioactivity: 78.5 ± 12.3 ng eq/ml or g
[4]; Submaxillary gland, 72 h
  Concentration of radioactivity: 18.0 ± 5.0 (N.C.) ng eq/ml or g
[4]; Submaxillary gland, 168 h
  Concentration of radioactivity: 6.9 ± 2.5 (N.C.) ng eq/ml or g
[4]; Testis, 0.5 h
  Concentration of radioactivity: 68.5 ± 21.6 ng eq/ml or g
[4]; Testis, 5 h
  Concentration of radioactivity: 128.2 ± 41.8 ng eq/ml or g
[4]; Testis, 12 h
  Concentration of radioactivity: 49.6 ± 10.4 ng eq/ml or g
[4]; Testis, 24 h
  Concentration of radioactivity: 18.7 ± 2.4 ng eq/ml or g
[4]; Testis, 72 h
  Concentration of radioactivity: 8.3 ± 10.2 (N.C.) ng eq/ml or g
[4]; Thymus, 0.5 h
  Concentration of radioactivity: 538.8 ± 138.4 ng eq/ml or g
[4]; Thymus, 5 h
  Concentration of radioactivity: 298.8 ± 61.8 ng eq/ml or g
[4]; Thymus, 12 h
  Concentration of radioactivity: 181.8 ± 19.4 ng eq/ml or g
[4]; Thymus, 24 h
  Concentration of radioactivity: 132.1 ± 3.9 ng eq/ml or g
[4]; Thymus, 72 h
  Concentration of radioactivity: 37.5 ± 8.1 (N.C.) ng eq/ml or g
[4]; Thymus, 168 h
  Concentration of radioactivity: 10.6 ± 3.3 (N.C.) ng eq/ml or g
[4]; Thyroid, 0.5 h
  Concentration of radioactivity: 826.4 ± 164.2 ng eq/ml or g
[4]; Thyroid, 5 h
  Concentration of radioactivity: 279.2 ± 83.8 ng eq/ml or g
[4]; Thyroid, 12 h
  Concentration of radioactivity: 124.3 ± 25.9 ng eq/ml or g
[4]; Thyroid, 24 h
  Concentration of radioactivity: 55.2 ± 7.4 ng eq/ml or g
[4]; large intestine
  time of maximum tissue concentration: 12 h
[4]; other tissues, 168 h
  radioactivity concentration as % of the maximum concentration: ≤ 3%
[4]; plasma, 72 h
  plasma radioactivity: undetectable
[4]; testis, epididymis and cecum
  time of maximum tissue concentration: 5 h
[5]; patients with hepatic disorders ref 18
  exposure versus healthy subjects: 1.59 fold
[5]; patients with renal disorders ref 17
  exposure versus healthy subjects: 1.68 fold
[6]
  TNF‐α expression in the aorta: decreased
  endothelial dysfunction: attenuated
